Literature values as cited in patent US12648566B2, “Solid bio-pesticidal composition comprising of elemental sulphur and azadirachtin” (SML LIMITED, priority 2021, dated 2026).

Details: buffer, pH 4

C/C=C(\C)C(=O)O[C@H]1C[C@@H](OC(C)=O)[C@@]2(C(=O)OC)CO[C@H]3[C@@H](O)[C@@](C)([C@]45O[C@@]4(C)[C@H]4C[C@@H]5O[C@@H]5OC=C[C@@]54O)[C@H]4[C@]1(CO[C@]4(O)C(=O)OC)[C@@H]32 [Azadirachtin]
laboratory half-life: 50 to 100 days
